{"source": "patent US7053041B1", "about": "“Methods and compositions useful for inhibition of αvβ5mediated angiogenesis” (The Scripps Research Institute, priority 1996, dated 2006)", "format_in_all_cases": "in vivo", "key": {"[1]": {"system": "bFGF-induced angiogenesis", "experiment": "chick CAM assay, bFGF-induced angiogenesis, intravenous inhibitors", "experimental": "(§1) Ten day old chick embryos were obtained from McIntyre Poultry (Lakeside, Calif.) and incubated at 37C with 60% humidity. A small hole was made through the shell at the end of the egg directly over the air sac with the use of a small crafts drill (Dremel, Division of Emerson Electric Co., Racine, Wis.). A second hole was drilled on the broad side of the egg in a region devoid of embryonic blood vessels determined previously by candling the egg. […] A 1.0 centimeter (cm)×1.0 cm square window was cut through the shell over the dropped CAM with the use of a small model grinding wheel (Dremel). The small window allowed direct access to the underlying CAM.\n(§2) Angiogenesis was induced by placing a 5 millimeter (mm)×5 mm Whatman filter disk (Whatman Filter paper No. 1) saturated with Hanks Balanced Salt Solution (HBSS, GIBCO, Grand Island, N.Y.) or HBSS containing preselected cytokines at a preselected concentration, i.e. one to test the effect on angiogenesis, on the CAM of a 10 day chick embryo in a region devoid of blood vessels and the windows were later sealed with tape. Angiogenesis was monitored by photomicroscopy after 72 hours. CAMs were snap frozen then 6 μm cryostat sections were fixed with acetone and stained by immunofluorescence as described in Example 2B and 2C with 10 μg/ml of selected anti-integrin antibodies, including those directed against αvβ5 as described in Example 1.\n(§3) Angiogenesis was first induced on 10 day old chick embryos by application of growth factor-saturated filter disks. Specifically, in the first assays, angiogenesis was induced by exposure to either bFGF or VEGF, each at a concentration of 150 ng/ml.\n(§4) For application of growth factors, during the candling procedures, prominent blood vessels were selected and marks were made on the egg shell to indicate their positions. The holes were drilled in the shell, the CAMs were dropped and growth factor-saturated filter papers were then separately placed on the CAMs as described above. The windows were sealed with sterile tape and the embryos were replaced in the incubator.\n(§5) Twenty four hours later, a second small window was carefully cut on the lateral side of the egg shell directly over prominent blood vessels selected previously. The outer egg shell was carefully removed leaving the embryonic membranes intact. The shell membrane was made transparent with a small drop of mineral oil (Perkin-Elmer Corp, Norwalk, Conn.) which allowed the blood vessels to be visualized easily. Then, phosphate buffered saline (PBS), 75 μg of purified sterile anti-integrin antibodies or 75 μg of synthetic peptides (cyclic peptide RGDfV, SEQ ID NO 4 and control cyclic peptide RADfV, SEQ ID NO 5) in PBS were injected into blood vessels apparent on the growth factor-induced CAMs. The windows were sealed with tape and the embryos were allowed to incubate until 72 hours.\nThe filter discs and representative surrounding CAM tissues were photographed in a stereomicroscope (FIGS. 3A–3F and FIGS. 5A–5F) and the mean angiogenic index +/− the standard error was determined for 12 CAMs per condition (FIGS. 4A–4B and FIGS. 6A–6B). Angiogenesis was scored for each embryo in a double blind manner by analyzing the number and extent of branching of blood vessels within the area of each disc. The scores ranged from 1 (low) to 4 (high) and the angiogenesis index was determined by subtracting a background of 1 from all data. […]"}, "[2]": {"system": "VEGF-induced angiogenesis", "experiment": "chick CAM assay, VEGF-induced angiogenesis, intravenous inhibitors", "experimental": "as §1, §2, §3, §4, §5\nThe filter discs and representative surrounding CAM tissues were photographed in a stereomicroscope (FIGS. 3A–3F and FIGS. 5A–5F) and the mean angiogenic index +/− the standard error was determined for 12 CAMs per condition (FIGS. 4A–4B and FIGS. 6A–6B). Angiogenesis was scored for each embryo in a double blind manner by analyzing the number and extent of branching of blood vessels within the area of each disc. The scores ranged from 1 (low) to 4 (high) and the angiogenesis index was determined by subtracting a background of 1 from all data.\nIn a further assay performed in the CAM model having VEGF-induced angiogenesis, 2 μg of peptides 85189 (SEQ ID NO 9) and the inert salt counterpart 121974 were separately intravenously injected as previously described. The effect of the peptides was assessed in comparison to that of control peptide 69601 (SEQ ID NO 5) and to untreated (labeled as NT) preparations.\nThe effect of the peptides of VEGF-induced angiogenesis is measured through a determination of the number of blood vessel branch points. […]"}, "[3]": {"system": "TNF-α mediated angiogenesis", "experiment": "chick CAM assay, TNF-α-induced angiogenesis", "details": "TNF-α 1.0 μg/ml; antibodies 75 μg per embryo, calphostin C 100 nM", "experimental": "(§6) The above growth factors (cytokines), including bFGF and VEGF, were separately applied at a concentration of 1.0 μg/ml to the 10 day old CAM model as previously described. PMA was used at a concentration of 20 ng/ml.\n(§7) After 24 hours after growth factor treatment, the antibodies, LM609 and P1F6, or the protein kinase C (PKC) inhibitor, calphostin C, were separately provided to the CAM model, either by a single intravascular dose as described above or by topical administration as described below in the next example. For intravascular injections over the next 3 day consecutive period, the antibodies were used at a concentration of 75 μg per embryo and the calphostin C was at a dosage of 100 nM.\n(§8) On day 13, filter discs and associated CAM tissue were dissected and analyzed for angiogenesis with a stereo microscope. Angiogenesis was scored in a double blind manner by analyzing the number and extent of branching of the blood vessels within the area of the discs. The scores ranged from low (1) to high (4). The angiogenesis index was determined by subtracting a background score of 1 from all data. Experiments were repeated 2–4 times with 5–6 embryos per condition."}, "[4]": {"system": "angiogenesis induced by TGF-α", "experiment": "chick CAM assay, TGF-α-induced angiogenesis", "details": "TGF-α 1.0 μg/ml; antibodies 75 μg per embryo, calphostin C 100 nM", "experimental": "as §6, §7, §8"}, "[5]": {"system": "angiogenesis induced by PMA", "experiment": "chick CAM assay, PMA-induced angiogenesis", "details": "PMA 20 ng/ml; antibodies 75 μg per embryo, calphostin C 100 nM", "experimental": "as §6, §7, §8"}, "[6]": {"system": "retinal vasculogenesis", "experiment": "newborn mouse model of retinal angiogenesis", "experimental": "For the model, newborn mice were injected subcutaneously twice daily for four days starting from day 0 with the cyclic peptide RGDfV (SEQ ID NO 4) (also referred to as peptide 203) or the control peptide RADfV (SEQ ID NO 5). On postnatal day five, globes were removed and fixed in 4.0% paraformaldehyde (PFA) at room temperature.\nTo quantitate mouse retinal angiogenesis, the distance from the optic nerve head to the most distal point of a single vessel selected in each of six equal sectors around a twelve hour clock was measured. The mean distance was calculated and averaged with similar data obtained from an entire litter. To measure the total volume of retinal blood vessels, the entire specimen was scanned in 2.0 μm optical sections and stored digitally. The “seed” function in Bio-Rad's Lasersharp software was then used to threshold and count cubic pixels in each section. A macro was written to sum the volume of all sections and determine the value for all vascular structures."}}, "data": [{"substance": "calphostin C [reference compound]", "values": [{"measurement": "effect on CAM angiogenesis in response to bFGF (angiogenesis index)", "setting": "[1]; bFGF 1.0 μg/ml, antibodies 75 μg per embryo, calphostin C 100 nM", "value": "minimal effects"}, {"measurement": "effect on CAM angiogenesis induced by VEGF (angiogenesis index)", "setting": "[2]; VEGF 1.0 μg/ml, antibodies 75 μg per embryo, calphostin C 100 nM", "value": "blocked angiogenesis"}, {"measurement": "effect on CAM angiogenesis in response to TNF-α (angiogenesis index)", "setting": "[3]", "value": "minimal effects"}, {"measurement": "effect on CAM angiogenesis induced by TGF-α (angiogenesis index)", "setting": "[4]", "value": "blocked angiogenesis"}, {"measurement": "effect on CAM angiogenesis induced by PMA (angiogenesis index)", "setting": "[5]", "value": "blocked angiogenesis"}]}, {"substance": "cyclo(Arg-Gly-Asp-D-Phe-Val) [compound 66203]", "values": [{"measurement": "inhibition of bFGF-induced CAM angiogenesis", "setting": "[1]; bFGF 150 ng/ml, 75 μg antibody or peptide intravenously, 72 hours", "value": "abolished angiogenesis"}, {"measurement": "inhibition of VEGF-induced CAM angiogenesis", "setting": "[2]; VEGF 150 ng/ml, 75 μg antibody or peptide intravenously, 72 hours", "value": "abolished angiogenesis"}, {"measurement": "volume of retinal blood vessels compared with untreated newborn mice", "setting": "[6]; five-day old treated animals", "value": "indistinguishable"}, {"measurement": "inhibition of retinal vasculogenesis compared to untreated counterparts", "setting": "[6]; newborn mice, s.c. twice daily for four days", "value": "~100", "unit": "%"}, {"measurement": "mean volume of retinal vessels", "setting": "[6]; postnatal day five", "value": "3.6×10^6 μm^3"}, {"measurement": "inhibition of retinal vasculogenesis relative to control peptide (vessel growth in two dimensions)", "setting": "[6]; s.c. twice daily for four days from day 0, postnatal day five, N=9", "value": 44, "unit": "%"}, {"measurement": "reduction in retinal vascular volume compared to controls", "setting": "[6]; three dimensional analysis, postnatal day five", "value": 78, "unit": "%"}, {"measurement": "difference in vessel growth between untreated newborn mice and treated five-day old mice", "setting": "[6]; two dimensions", "value": "No statistical difference"}]}]}
